Measured values from patent US4145337A, “Aminoethylglycine containing polypeptides” (Hoffmann-La Roche Inc., priority 1977, dated 1979).
Non-standard residues stand in square brackets, D forms with d. Residues, ends and D or L forms follow the SMILES beside them. Gly(N-2-aminoethyl) = NCCNCC(=O)O

What was measured:
[1] = test system: basal gastric acid secretion; experiment: Gastric antisecretory activity in unanesthetized gastric fistula rat, i.v.; assay type: in vivo; conditions: 200 μg i.v. single bolus
Protocol: The gastric antisecretory effect of somatostatin analogs was studied in a model which utilizes unanesthetized rats.
All operative techniques were carried out on fasted female albino rats (average weight 250 g), under Penthrane anesthesia, using montraumatic microsurgical instruments, polyethylene tubing and a special adhesive. The basic model used in the present studies consisted of:
This allowed adequate hydration through the constant infusion of 0.15M NaCl (at the rate of 1.4 ml/hr.). This catheter was also used for i.v. administration of solutions of the test compounds.
(b) Catheterization of the stomach. A cannula in the forestomach allowed washing of the gastric lumen with saline (before experiments). Water (0.2 ml/10 min) was infused through this catheter during the experimental periods. This was done to prevent obstruction of the "collecting" cannula (see below) by gastric debris and to obtain a practical workable volume to measure several parameters of gastric secretion. A second cannula was positioned in the glandular stomach, close to the greater curvature, in the more dependent site and in such a way as to allow collection, by gravity, of all fluids emerging from the stomach. Passage of these secretions through a small glass container permitted continuous recording of pH by means of a glass microelectrode. A fraction collector was used to simultaneously obtain the gastric secretions.
(c) Catheterization of the lower part of the common bile duct to procure mixed secretions of bile and pancreatic juice as a function of time. This was done with the purpose of examining the effect of these compounds, if any, on bile flow.
This preparation is suitable for the bioassay of microgram quantities of gastric secretory depressants in which each animal serves as its own control. The rats (250 g b.w.) were allowed to attain a period of stabilized gastric acid output (for one hour) and were then injected intravenously (100 μl) with 200 μg of the test compound. This single bolus injection was immediately followed by a rinsing injection of 50 μl saline, thus insuring quantitative delivery of the dose. The pH was recorded continuously for 1 hour before and 1 1/2 hour after the i.v. injection of the test compounds. The gastric secretions were collected over 10-minute intervals before and after dosage. Four parameters of gastric secretion were evaluated: (a) changes in the negative logarithm of the hydrogen ion activity (pH, determined by the glass electrode either by a continuous trace or in samples taken at 10-minute intervals); (b) volume; (c) total acid concentration (μEq/ml); and d) total acid output (μEq/10-min periods).

gastric secretion [2] = experiment: Gastric antisecretory activity after intragastric administration, unanesthetized rat; assay type: in vivo; conditions: 8 mg/kg b.w. intragastrically, saline solution
Protocol: The unanesthetized rat model was used in an exact manner to that employed in the evaluation of gastric antisecretory activity after parenteral administration described above in A, with the following modification. Following recording of the gastric pH for 1 hour, drainage of the gastric secretions was interrupted by means of a forceps. Saline solutions (total volume = 1000 μl) of Compound N (at the dose of 8 mg/kg b.w.) were then intragastrically administered, via the canula in the avascular stomach, which was closed. Fifteen minutes later, the catheter draining the gastric secretions was reopened; the water infusion through the catheter in the forestomach was simultaneously reestablished. The pH was now recorded continuously for 1 1/2 hours. Samples of gastric juice were taken before and after treatment, and analyzed for the usual four parameters of gastric secretion.

[3] = test system: restraint-immersion induced gastric ulceration; experiment: Mouse restraint-immersion test, antiulcerogenic activity; assay type: in vivo
Protocol: In both studies CD-1 male mice weighing between 18-25 g were used. The mice were fasted for 19 hours prior to the initiation of restraint-immersion which involved restraining animals in rubber hoses and immersion in water (21° C.) to the height of the xiphoid process. In the first study, just prior to the initiation of the restraint-immersion procedure, mice received, via the subcutaneous route, graded amounts (0.1 to 10 mg/kg b.w.) of somatostatin (Compound A), Compound F, or vehicle (5% acacia); this administration was repeated two hours later. In the second study, the compounds (Compound A, Compound L, or vehicle) were administered only once, just prior to the initiation of the restraint-immersion procedure. Following four hours of restraint-immersion the animals (both studies) were killed and their stomachs examined for ulceration. The degree of ulceration was determined by the amount of visible blood present in the stomach and was rated on a scale of 0 to 4, with 0 being no detectable blood and 4 being a massive amount of blood. All compounds were dispersed in 5% acacia and administered at a dosage volume of 0.2 ml per 20 grams of body weight. The antiulcerogenic ED50 values were calculated using percent protection as the response and a computer program ("ED50") based on the probit method of Finney (Finney, "Probit Analysis", Cambridge University Press, 1971). The comparative effectiveness (relative potency R. P.) of somatostatin and Compound F (first study) or somatostatin and Compound L (second study) was determined from the dose responses using an "ED50" computer program.

[4] = test system: gastrointestinal bleeding from residual ulcers; conditions: patient, 250 μg i.v. bolus then 250 μg per hour for 67 hours; cited from earlier work
peptic ulcer bleeding = conditions: infusion in man, Rasche et al. 1976; cited from earlier work
gastric secretion [5] = conditions: chronic fistula dog, Torchiana et al. 1977; cited from earlier work
[6] = test system: duodenal ulcers produced by prolonged administration of pentagastrin or histamine; conditions: cats, continuous i.v. infusion 0.62 to 5.0 μg/kg-hr; cited from earlier work
[7] = test system: basal gastric secretion and gastrin release; conditions: Bloom et al. 1974; cited from earlier work
gastric mucus production = experiment: Stimulation of mucoprotein production: gastric mucosal carbohydrates and total protein; assay type: in vivo, rat; conditions: 800 μg/kg i.p.
Protocol: Overnight fasted rats received saline solutions of either Compound M or Compound A at the antisecretory dose of 800μg/kg administered intraperitoneally. Control rats were given only vehicle. All animals were sacrificed by decapitation 1 hour after dosing. After opening the abdomen the stomach was removed and its contents were washed away with 10 ml of a 0.85% NaCl solution. The excised stomachs were cut open along the greater curvature and the exposed gastric mucosa was carefully scraped. The scrapings were homogenized in 5 ml of the 0.85% NaCl solution and subjected to chemical analysis. Total hexoses were determined by the anthrone reaction, which is based on the formation in concentrated sulfuric acid of furfural derivatives which react with anthrone to form a blue-green color; this reaction has the advantage of being applied directly to the glycoprotein with color formation occuring concurrently with the liberation of sugars (Methods in Enzymology, Vol. VIII, pp. 4-5 1966). Fucose in the unhydrolyzed mucoprotein was determined by the Dische-Shettes cysteine-sulfuric acid reaction for methyl pentoses. This method allows accurate determination of fucose even in the presence of large amounts of hexoses and peptide material (Methods in Eznymology, Vol. VIII, pp 11-13 , 1966).
Total protein was determined using the Lowry method.

[8] = test system: restraint ulcer formation; conditions: cited from earlier work
[9] = test system: growth hormone, insulin and glucagon; conditions: Brown et al. 1977; cited from earlier work
[10] = test system: pentagastrin-induced gastric acid secretion; conditions: Brown et al. 1977; cited from earlier work
[11] = 1 hour after dosing, mucosal scrapings

With C[C@@H](O)[C@@H]1NC(=O)[C@H](CCCCN)NC(=O)[C@H](Cc2c[nH]c3ccccc23)NC(=O)[C@H](Cc2ccccc2)NC(=O)[C@H](Cc2ccccc2)NC(=O)[C@H](CC(N)=O)NC(=O)[C@H](CCCCN)NC(=O)CN(CCN)C(=O)[C@H](CO)NC(=O)[C@H]([C@@H](C)O)NC(=O)[C@H](Cc2ccccc2)NC1=O [Compound D, Cyclo [Aminoethylglycyl-L-lysyl-L-asparaginyl-L-phenylalanyl-L-phenylalanyl-L-tryptophyl-L-lysyl-L-threonyl-L-phenylalanyl-L-threonyl-L-seryl]] (cyclo(FFWKTFTS[Gly(N-2-aminoethyl)]KN)) the “gastric antisecretory activity (pH and acid concentration), in words, relative to somatostatin” value [1] was “erratic activity”.

For C[C@H](NC(=O)CNCCN)C(=O)NCC(=O)N[C@@H](CS)C(=O)N[C@@H](CCCCN)C(=O)N[C@@H](CC(N)=O)C(=O)N[C@@H](Cc1ccccc1)C(=O)N[C@@H](Cc1ccccc1)C(=O)N[C@@H](Cc1c[nH]c2ccccc12)C(=O)N[C@@H](CCCCN)C(=O)N[C@H](C(=O)N[C@@H](Cc1ccccc1)C(=O)N[C@H](C(=O)N[C@@H](CO)C(=O)N[C@@H](CS)C(=O)O)[C@@H](C)O)[C@@H](C)O [Compound E, Aminoethylglycyl-L-alanyl-glycyl-L-cysteinyl-L-lysyl-L-asparaginyl-L-phenylalanyl-L-phenylalanyl-L-tryptophyl-L-lysyl-L-threonyl-L-phenylalanyl-L-threonyl-L-seryl-L-cysteine], the “gastric antisecretory activity (pH and acid concentration), in words, relative to somatostatin” value [1] was “severely decreases activity”.

For C[C@@H](O)[C@H](NC(=O)[C@H](Cc1ccccc1)NC(=O)[C@@H](NC(=O)[C@H](CCCCN)NC(=O)[C@H](Cc1c[nH]c2ccccc12)NC(=O)[C@H](Cc1ccccc1)NC(=O)[C@H](Cc1ccccc1)NC(=O)[C@H](CC(N)=O)NC(=O)[C@H](CCCCN)NC(=O)[C@H](CS)NC(=O)CNCCN)[C@@H](C)O)C(=O)N[C@@H](CO)C(=O)N[C@@H](CS)C(=O)N(CCN)CC(=O)O [Compound J, Aminoethylglycyl-L-cysteinyl-L-lysyl-L-asparaginyl-L-phenylalanyl-L-phenylalanyl-L-tryptophyl-L-lysyl-L-threonyl-L-phenylalanyl-L-threonyl-L-seryl-L-cysteinyl-aminoethylglycine] (H-[Gly(N-2-aminoethyl)]CKNFFWKTFTSC[Gly(N-2-aminoethyl)]-OH), the “gastric antisecretory activity (pH and acid concentration), in words, relative to somatostatin” value [1] was “less active than somatostatin”.

In the case of “Aminoethylglycyl-aminoethylglycyl-L-cysteinyl-L-lysyl-L-asparaginyl-L-phenylalanyl-L-phenylalanyl-D-tryptopyl-L-lysyl-L-threonyl-L-phenylalanyl-L-threonyl-L-seryl-L-cysteine [Compound N]”, the “gastric antisecretory activity after intragastric administration” value (gastric secretion [2]) is reported as “active after intragastric administration”.

For C[C@H](N)C(=O)NCC(=O)N[C@H]1CSSC[C@@H](C(=O)O)NC(=O)[C@H](CO)NC(=O)[C@H]([C@@H](C)O)NC(=O)[C@H](Cc2ccccc2)NC(=O)[C@H]([C@@H](C)O)NC(=O)[C@H](CCCCN)NC(=O)[C@H](Cc2c[nH]c3ccccc23)NC(=O)[C@H](Cc2ccccc2)NC(=O)[C@H](Cc2ccccc2)NC(=O)[C@H](CC(N)=O)NC(=O)[C@H](CCCCN)NC1=O [Compound A, somatostatin], the “prevention of restraint-immersion induced gastric ulceration, in words” value ([3]; first study, s.c. twice) was “effective in preventing restraint-immersion induced gastric ulceration”, the “antiulcerogenic ED50” value ([3]; first study: s.c. just prior to restraint-immersion, repeated two hours later, 4 h restraint-immersion) was 0.35 mg/kg and the ED50 ([3]; second study: administered only once just prior to restraint-immersion, 4 h) was 6.70 mg/kg. For the same compound, the effect on bleeding [4] was “immediate cessation of the bleeding after 1 hour”, the “endoscopy at the end of treatment period” value [4] was “two ulcers in the process of healing” and the “effect on peptic ulcer bleeding” value (peptic ulcer bleeding) was “stop peptic ulcer bleeding”. The “duration of inhibitory effects on gastric secretion” value (gastric secretion [5]) was “short duration”, the “prevention of duodenal ulcers” value [6] was “effectively prevented the formation of duodenal ulcers” and the “effect on basal gastric secretion and gastrin release” value [7] was “inhibits basal gastric secretion and gastrin release”. For the same compound, the “Fucose, gastric mucosal concentration (mean)” value (gastric mucus production; [11]) was 46.2 μg/total sample, the “Hexose, gastric mucosal concentration (mean)” value (gastric mucus production; [11]) was 235.3 μg/total sample and the “Total Protein, gastric mucosal concentration (mean)” value (gastric mucus production; [11]) was 350.0 μg/total sample. For the same compound, the “gastric mucosal carbohydrates versus control, in words” value (gastric mucus production; 1 hour after treatment) was “did not appear to influence concentration of carbohydrates”, the “gastric mucosal total protein versus control, in words” value (gastric mucus production; 1 hour after treatment) was “produced an increment of the total protein” and the “ulcers relative to untreated animals” value ([8]; 100 μg linear protamine-zinc-somatostatin/rat s.c. before, 3 h and 6 h, after 9 hours of immobilization) was 1/5. For the same compound, the “effect on restraint ulcer formation” value ([8]; subcutaneous administration in rats, Zierden et al. 1976) was “prophylactic effect on restraint ulcer formation”.

In the case of C[C@H](N)C(=O)NCC(=O)N[C@@H](CS)C(=O)N[C@@H](CCCCN)C(=O)N[C@@H](CC(N)=O)C(=O)N[C@@H](Cc1ccccc1)C(=O)N[C@@H](Cc1ccccc1)C(=O)N[C@@H](Cc1c[nH]c2ccccc12)C(=O)N[C@@H](CCCCN)C(=O)N[C@H](C(=O)N[C@@H](Cc1ccccc1)C(=O)N[C@H](C(=O)N[C@@H](CO)C(=O)N[C@@H](CS)C(=O)O)[C@@H](C)O)[C@@H](C)O [Compound B, HAlaGlyCysLysAsnPhePheTrpLysThrPheThrSerCysOH], the “gastric antisecretory activity (pH and acid concentration), in words, relative to somatostatin” value [1] is reported as “as active as the oxidized, cyclic somatostatin”.

In the case of (D-Trp^8)-somatostatin, the “potency in inhibition of growth hormone, insulin and glucagon relative to somatostatin” value [9] is given as “higher potency than somatostatin” and the “potency in inhibition of pentagastrin-induced gastric acid secretion relative to somatostatin” value [10] is given as “less potent”.
